ChEMBL document CHEMBL1201861, “Genomics of Drug Sensitity in Cancer screening data, Wellcome Trust Sanger Institute”
Structures can show the parent of a compound that is named as a salt.

Legend:
Experiment in all cases: cells
NCI-H1838 = assay type: functional, cell-based, Homo sapiens; details: Homo sapiens, NCI-H1838
Description: SANGER: Inhibition of human NCI-H1838 cell growth in a cell viability assay.

MZ2-MEL = assay type: functional, cell-based, Homo sapiens; details: Homo sapiens, MZ2-MEL
Description: SANGER: Inhibition of human MZ2-MEL cell growth in a cell viability assay.

MV4-11 = assay type: functional, cell-based, Homo sapiens, MV-4-11; details: Homo sapiens, MV4-11
Description: SANGER: Inhibition of human MV-4-11 cell growth in a cell viability assay.

ML-2 = assay type: functional, cell-based, Homo sapiens; details: Homo sapiens, ML-2
Description: SANGER: Inhibition of human ML-2 cell growth in a cell viability assay.

NCI-H720 = assay type: functional, cell-based, Homo sapiens; details: Homo sapiens, NCI-H720
Description: SANGER: Inhibition of human NCI-H720 cell growth in a cell viability assay.

EM-2 = assay type: functional, cell-based, Homo sapiens; details: Homo sapiens, EM-2
Description: SANGER: Inhibition of human EM-2 cell growth in a cell viability assay.

NB69 = assay type: functional, cell-based, Homo sapiens; details: Homo sapiens, NB69
Description: SANGER: Inhibition of human NB69 cell growth in a cell viability assay.

KP-N-YS = assay type: functional, cell-based, Homo sapiens; details: Homo sapiens, KP-N-YS
Description: SANGER: Inhibition of human KP-N-YS cell growth in a cell viability assay.

HCC 2998 = assay type: functional, cell-based, Homo sapiens; details: Homo sapiens, HCC 2998
Description: SANGER: Inhibition of human HCC2998 cell growth in a cell viability assay.

HDLM-2 = assay type: functional, cell-based, Homo sapiens; details: Homo sapiens, HDLM-2
Description: SANGER: Inhibition of human HDLM-2 cell growth in a cell viability assay.

KS-1 = assay type: functional, cell-based, Homo sapiens; details: Homo sapiens, KS-1
Description: SANGER: Inhibition of human KS-1 cell growth in a cell viability assay.

DB = assay type: functional, cell-based, Homo sapiens; details: Homo sapiens, DB
Description: SANGER: Inhibition of human DB cell growth in a cell viability assay.

NCI-H1395 = assay type: functional, cell-based, Homo sapiens; details: Homo sapiens, NCI-H1395
Description: SANGER: Inhibition of human NCI-H1395 cell growth in a cell viability assay.

ES7 = assay type: functional, cell-based, Homo sapiens; details: Homo sapiens, ES7
Description: SANGER: Inhibition of human ES7 cell growth in a cell viability assay.

SNU1 = assay type: functional, cell-based, Homo sapiens; details: Homo sapiens, SNU1
Description: SANGER: Inhibition of human NCI-SNU-1 cell growth in a cell viability assay.

CGTH-W-1 = assay type: functional, cell-based, Homo sapiens; details: Homo sapiens, CGTH-W-1
Description: SANGER: Inhibition of human CGTH-W-1 cell growth in a cell viability assay.

GOTO = assay type: functional, cell-based, Homo sapiens; details: Homo sapiens, GOTO
Description: SANGER: Inhibition of human GOTO cell growth in a cell viability assay.

P30-OHK = assay type: functional, cell-based, Homo sapiens; details: Homo sapiens, P30-OHK
Description: SANGER: Inhibition of human P30-OHK cell growth in a cell viability assay.

A3-KAW = assay type: functional, cell-based, Homo sapiens; details: Homo sapiens, A3-KAW
Description: SANGER: Inhibition of human A3-KAW cell growth in a cell viability assay.

LAN-6 = assay type: functional, cell-based, Homo sapiens; details: Homo sapiens, LAN-6
Description: SANGER: Inhibition of human LAN-6 cell growth in a cell viability assay.

NCI-H1304 = assay type: functional, cell-based, Homo sapiens; details: Homo sapiens, NCI-H1304
Description: SANGER: Inhibition of human NCI-H1304 cell growth in a cell viability assay.

IST-SL1 = assay type: functional, cell-based, Homo sapiens; details: Homo sapiens, IST-SL1
Description: SANGER: Inhibition of human IST-SL1 cell growth in a cell viability assay.

BB49-HNC = assay type: functional, cell-based, Homo sapiens; details: Homo sapiens, BB49-HNC
Description: SANGER: Inhibition of human BB49-HNC cell growth in a cell viability assay.

NTERA-2-cl-D1 = assay type: functional, cell-based, Homo sapiens; details: Homo sapiens, NTERA-2-cl-D1
Description: SANGER: Inhibition of human NTERA-S-cl-D1 cell growth in a cell viability assay.

SW872 = assay type: functional, cell-based, Homo sapiens; details: Homo sapiens, SW872
Description: SANGER: Inhibition of human SW872 cell growth in a cell viability assay.

OCUB-M = assay type: functional, cell-based, Homo sapiens; details: Homo sapiens, OCUB-M
Description: SANGER: Inhibition of human OCUB-M cell growth in a cell viability assay.

Mo = assay type: functional, cell-based, Homo sapiens; details: Homo sapiens, Mo
Description: SANGER: Inhibition of human Mo-T cell growth in a cell viability assay.

KY821 = assay type: functional, cell-based, Homo sapiens; details: Homo sapiens, KY821
Description: SANGER: Inhibition of human KY821 cell growth in a cell viability assay.

LB2241-RCC = assay type: functional, cell-based, Homo sapiens; details: Homo sapiens, LB2241-RCC
Description: SANGER: Inhibition of human LB2241-RCC cell growth in a cell viability assay.

MFH-ino = assay type: functional, cell-based, Homo sapiens; details: Homo sapiens, MFH-ino
Description: SANGER: Inhibition of human MFH-ino cell growth in a cell viability assay.

A253 cell line = assay type: functional, cell-based, Homo sapiens; details: Homo sapiens, A253
Description: SANGER: Inhibition of human A253 cell growth in a cell viability assay.

KU812 cell line = assay type: functional, cell-based, Homo sapiens; details: Homo sapiens, KU812
Description: SANGER: Inhibition of human KU812 cell growth in a cell viability assay.

HCE-4 = assay type: functional, cell-based, Homo sapiens; details: Homo sapiens, HCE-4
Description: SANGER: Inhibition of human HCE-4 cell growth in a cell viability assay.

LS-513 = assay type: functional, cell-based, Homo sapiens; details: Homo sapiens, LS-513
Description: SANGER: Inhibition of human LS-513 cell growth in a cell viability assay.

NOS-1 = assay type: functional, cell-based, Homo sapiens; details: Homo sapiens, NOS-1
Description: SANGER: Inhibition of human NOS-1 cell growth in a cell viability assay.

SF-126 = assay type: functional, cell-based, Homo sapiens; details: Homo sapiens, SF-126
Description: SANGER: Inhibition of human SF126 cell growth in a cell viability assay.

NCI-H2126 = assay type: functional, cell-based, Homo sapiens; details: Homo sapiens, NCI-H2126
Description: SANGER: Inhibition of human NCI-H2126 cell growth in a cell viability assay.

697 = assay type: functional, cell-based, Homo sapiens; details: Homo sapiens
Description: SANGER: Inhibition of human 697 cell growth in a cell viability assay.

L-428 = assay type: functional, cell-based, Homo sapiens; details: Homo sapiens, L-428
Description: SANGER: Inhibition of human L-428 cell growth in a cell viability assay.

Calu-6 = assay type: functional, cell-based, Homo sapiens; details: Homo sapiens, Calu-6
Description: SANGER: Inhibition of human Calu-6 cell growth in a cell viability assay.

ONS-76 = assay type: functional, cell-based, Homo sapiens; details: Homo sapiens, ONS-76
Description: SANGER: Inhibition of human ONS-76 cell growth in a cell viability assay.

8-MG-BA = assay type: functional, cell-based, Homo sapiens; details: Homo sapiens, 8-MG-BA
Description: SANGER: Inhibition of human 8-MG-BA cell growth in a cell viability assay.

SF-539 = assay type: functional, cell-based, Homo sapiens; details: Homo sapiens, SF-539
Description: SANGER: Inhibition of human SF539 cell growth in a cell viability assay.

TGBC1TKB = assay type: functional, cell-based, Homo sapiens; details: Homo sapiens, TGBC1TKB
Description: SANGER: Inhibition of human TGBC1TKB cell growth in a cell viability assay.

MZ7-mel = assay type: functional, cell-based, Homo sapiens; details: Homo sapiens, MZ7-mel
Description: SANGER: Inhibition of human MZ7-mel cell growth in a cell viability assay.

K562 = assay type: functional, cell-based, Homo sapiens; details: Homo sapiens, K562
Description: SANGER: Inhibition of human K-562 cell growth in a cell viability assay.

CAS-1 = assay type: functional, cell-based, Homo sapiens; details: Homo sapiens, CAS-1
Description: SANGER: Inhibition of human CAS-1 cell growth in a cell viability assay.

MPP-89 = assay type: functional, cell-based, Homo sapiens; details: Homo sapiens, MPP-89
Description: SANGER: Inhibition of human MPP-89 cell growth in a cell viability assay.

## CCC/C=C/C=C/C(=O)O[C@H]1/C(=C/C(=O)OC)C[C@H]2C[C@H]([C@@H](C)O)OC(=O)C[C@H](O)C[C@@H]3C[C@H](OC(C)=O)C(C)(C)[C@](O)(C[C@@H]4C/C(=C/C(=O)OC)C[C@H](/C=C/C(C)(C)[C@]1(O)O2)O4)O3 [BRYOSTATIN 1]
NCI-H1838
  IC50: > 8 nM
MZ2-MEL
  IC50: > 8 nM
MV4-11
  IC50: > 8 nM
ML-2
  IC50: > 8 nM
NCI-H720
  IC50: > 8 nM
EM-2
  IC50: > 8 nM
NB69
  IC50: > 8 nM
KP-N-YS
  IC50: > 8 nM
HCC 2998
  IC50: > 8 nM
HDLM-2
  IC50: > 8 nM
KS-1
  IC50: > 8 nM
DB
  IC50: > 8 nM
NCI-H1395
  IC50: > 8 nM
ES7
  IC50: > 8 nM
SNU1
  IC50: > 8 nM
CGTH-W-1
  IC50: > 8 nM
GOTO
  IC50: > 8 nM
P30-OHK
  IC50: > 8 nM
A3-KAW
  IC50: > 8 nM
LAN-6
  IC50: > 8 nM
NCI-H1304
  IC50: > 8 nM
IST-SL1
  IC50: > 8 nM
BB49-HNC
  IC50: > 8 nM
NTERA-2-cl-D1
  IC50: > 8 nM
SW872
  IC50: > 8 nM
OCUB-M
  IC50: > 8 nM
Mo
  IC50: > 8 nM
KY821
  IC50: > 8 nM
LB2241-RCC
  IC50: > 8 nM
MFH-ino
  IC50: > 8 nM
A253 cell line
  IC50: > 8 nM
KU812 cell line
  IC50: > 8 nM
HCE-4
  IC50: > 8 nM
LS-513
  IC50: > 8 nM
NOS-1
  IC50: > 8 nM
SF-126
  IC50: > 8 nM
NCI-H2126
  IC50: > 8 nM
697
  IC50: > 8 nM
L-428
  IC50: > 8 nM
Calu-6
  IC50: > 8 nM
ONS-76
  IC50: > 8 nM
8-MG-BA
  IC50: > 8 nM
SF-539
  IC50: > 8 nM
TGBC1TKB
  IC50: > 8 nM
MZ7-mel
  IC50: > 8 nM
K562
  IC50: > 8 nM
CAS-1
  IC50: > 8 nM
MPP-89
  IC50: > 8 nM

## COc1cccc2c1C(=O)c1c(O)c3c(c(O)c1C2=O)C[C@@](O)(C(=O)CO)C[C@@H]3O[C@H]1C[C@H](N)[C@H](O)[C@H](C)O1 [DOXORUBICIN]
NCI-H1838
  IC50: 405 nM
MZ2-MEL
  IC50: 33.9 nM
MV4-11
  IC50: 10 nM
ML-2
  IC50: 135 nM
NCI-H720
  IC50: > 1020 nM
EM-2
  IC50: 325 nM
NB69
  IC50: 79.2 nM
KP-N-YS
  IC50: 218 nM
HCC 2998
  IC50: 17.4 nM
HDLM-2
  IC50: 569 nM
KS-1
  IC50: 3.44 nM
DB
  IC50: 162 nM
NCI-H1395
  IC50: > 1020 nM
ES7
  IC50: 51.4 nM
SNU1
  IC50: 65.9 nM
CGTH-W-1
  IC50: 53.5 nM
GOTO
  IC50: 286 nM
P30-OHK
  IC50: 57.6 nM
A3-KAW
  IC50: 40.1 nM
LAN-6
  IC50: 315 nM
NCI-H1304
  IC50: 321 nM
IST-SL1
  IC50: 517 nM
BB49-HNC
  IC50: > 1020 nM
NTERA-2-cl-D1
  IC50: 1.37 nM
SW872
  IC50: 121 nM
OCUB-M
  IC50: 15.2 nM
Mo
  IC50: 805 nM
KY821
  IC50: > 1020 nM
LB2241-RCC
  IC50: 235 nM
MFH-ino
  IC50: 3.99 nM
A253 cell line
  IC50: 46.1 nM
KU812 cell line
  IC50: 33.2 nM
HCE-4
  IC50: 18.1 nM
LS-513
  IC50: > 1020 nM
NOS-1
  IC50: 79.1 nM
SF-126
  IC50: 105 nM
NCI-H2126
  IC50: 192 nM
697
  IC50: 19.1 nM
L-428
  IC50: 791 nM
Calu-6
  IC50: 254 nM
ONS-76
  IC50: 18.9 nM
8-MG-BA
  IC50: 22.1 nM
SF-539
  IC50: 122 nM
TGBC1TKB
  IC50: > 1020 nM
MZ7-mel
  IC50: 113 nM
K562
  IC50: 386 nM
CAS-1
  IC50: 238 nM
MPP-89
  IC50: 393 nM

## O=C(O)c1ccc(-c2c[nH]c3ncc(-c4ccccc4)cc23)cc1C1CCCC1 [GSK-650394]
NCI-H1838
  IC50: > 16000 nM
MZ2-MEL
  IC50: 6610 nM
MV4-11
  IC50: 165 nM
ML-2
  IC50: > 16000 nM
NCI-H720
  IC50: > 16000 nM
EM-2
  IC50: > 16000 nM
NB69
  IC50: > 16000 nM
KP-N-YS
  IC50: 4390 nM
HCC 2998
  IC50: > 16000 nM
HDLM-2
  IC50: > 16000 nM
KS-1
  IC50: > 16000 nM
DB
  IC50: > 16000 nM
NCI-H1395
  IC50: > 16000 nM
ES7
  IC50: > 16000 nM
SNU1
  IC50: > 16000 nM
CGTH-W-1
  IC50: 2100 nM
GOTO
  IC50: > 16000 nM
P30-OHK
  IC50: 6210 nM
A3-KAW
  IC50: > 16000 nM
LAN-6
  IC50: > 16000 nM
NCI-H1304
  IC50: > 16000 nM
IST-SL1
  IC50: > 16000 nM
BB49-HNC
  IC50: > 16000 nM
NTERA-2-cl-D1
  IC50: 3550 nM
SW872
  IC50: 13700 nM
OCUB-M
  IC50: 2790 nM
Mo
  IC50: > 16000 nM
KY821
  IC50: > 16000 nM
LB2241-RCC
  IC50: > 16000 nM
MFH-ino
  IC50: 1990 nM
A253 cell line
  IC50: > 16000 nM
KU812 cell line
  IC50: 2190 nM
HCE-4
  IC50: 7590 nM
LS-513
  IC50: > 16000 nM
NOS-1
  IC50: > 16000 nM
SF-126
  IC50: 8800 nM
NCI-H2126
  IC50: > 16000 nM
697
  IC50: > 16000 nM
L-428
  IC50: > 16000 nM
Calu-6
  IC50: > 16000 nM
ONS-76
  IC50: 4140 nM
8-MG-BA
  IC50: 15600 nM
SF-539
  IC50: > 16000 nM
TGBC1TKB
  IC50: > 16000 nM
MZ7-mel
  IC50: > 16000 nM
K562
  IC50: > 16000 nM
CAS-1
  IC50: 11000 nM
MPP-89
  IC50: 9270 nM

## COC1=CC(c2cc3ccccc3[nH]2)=N/C1=C\c1[nH]c(C)cc1C [OBATOCLAX MESYLATE]
NCI-H1838
  IC50: > 16000 nM
MZ2-MEL
  IC50: 29.6 nM
MV4-11
  IC50: 180 nM
ML-2
  IC50: 229 nM
NCI-H720
  IC50: > 16000 nM
EM-2
  IC50: 3640 nM
NB69
  IC50: 15.7 nM
KP-N-YS
  IC50: 789 nM
HCC 2998
  IC50: < 62.5 nM
HDLM-2
  IC50: 420 nM
KS-1
  IC50: 305 nM
DB
  IC50: 234 nM
NCI-H1395
  IC50: > 16000 nM
ES7
  IC50: < 62.5 nM
SNU1
  IC50: 121 nM
CGTH-W-1
  IC50: 399 nM
GOTO
  IC50: 4300 nM
P30-OHK
  IC50: 240 nM
A3-KAW
  IC50: 85.7 nM
LAN-6
  IC50: 1900 nM
NCI-H1304
  IC50: 1640 nM
IST-SL1
  IC50: 6540 nM
BB49-HNC
  IC50: 1340 nM
NTERA-2-cl-D1
  IC50: 104 nM
SW872
  IC50: 160 nM
OCUB-M
  IC50: 225 nM
Mo
  IC50: 1900 nM
KY821
  IC50: > 16000 nM
LB2241-RCC
  IC50: 761 nM
MFH-ino
  IC50: 247 nM
A253 cell line
  IC50: 575 nM
KU812 cell line
  IC50: 994 nM
HCE-4
  IC50: 203 nM
LS-513
  IC50: > 16000 nM
NOS-1
  IC50: 64.1 nM
SF-126
  IC50: 273 nM
NCI-H2126
  IC50: 2230 nM
697
  IC50: 53.2 nM
L-428
  IC50: 370 nM
Calu-6
  IC50: 90.3 nM
ONS-76
  IC50: 20.4 nM
8-MG-BA
  IC50: 78 nM
SF-539
  IC50: 116 nM
TGBC1TKB
  IC50: 620 nM
MZ7-mel
  IC50: < 62.5 nM
K562
  IC50: 1670 nM
CAS-1
  IC50: 1090 nM
MPP-89
  IC50: 463 nM
